The nature of one data set: log P by HPLC on reversed-phase column (C18), EEC Directive 79/831 Annex V.A8. The data set is classed as physicochemical. The settings on record: C18, 40° C., 0.1% aqueous formic acid and acetonitrile, gradient 10% to 90% acetonitrile. How it is done: Temperature: 40° C.; Mobile phases: 0.1% aqueous formic acid and acetonitrile; linear gradient from 10% acetonitrile to 90% acetonitrile.
With `Cc1nn(C)cc1C(=O)N(C1CC1)C(C)c1cccnc1Cl` (racemic) [Example 78], the log partition coefficient (logP) – broadly, the decadic logarithm of the partition coefficient of the neutral form, usually between octanol and water – is reported as 1.58.

In the case of `CC(c1cccnc1Cl)N(C(=O)c1cn(C)nc1C(F)F)C1CC1` (racemic) [Example 81], the logP was 1.88.

`Cc1cc(C(=O)N(C2CC2)C(C)c2cccnc2Cl)no1` (racemic) [Example 83] showed a log partition coefficient (logP) of 2.07.

Compound `Cc1cc(C(=O)N(C2CC2)C(C)c2cccnc2Cl)nn1C` (racemic) [Example 84] came in with a lipophilicity (logP) of 1.78.

`CC(c1cnc(Cl)c(Cl)c1)N(C(=O)c1cn(C)nc1C(F)(F)F)C1CC1` (stereo not shown) [Example 1] showed a logP of 3.14.

Turning to `CC(c1cnc(Cl)c(Cl)c1)N(C(=O)c1cn(C)cc1C(F)(F)F)C1CC1` (stereo not shown) [Example 2], the logP is reported as 3.34.

On to `Cc1cc(C(=O)N(C2CC2)C(C)c2cnc(Cl)c(Cl)c2)c(C)o1` (stereo not shown) [Example 3], for which the logP came out at 3.7.

Take `Cc1nn(C)c(F)c1C(=O)N(C1CC1)C(C)c1cnc(Cl)c(Cl)c1` (stereo not shown) [Example 4]: the logP was determined as 2.56.

For `CC(c1cnc(Cl)c(Cl)c1)N(C(=O)c1cn(C)nc1C(F)F)C1CC1` (stereo not shown) [Example 5], the log partition coefficient (logP) is listed as 2.67.

Regarding `COc1nn(C)cc1C(=O)N(C1CC1)C(C)c1cnc(Cl)c(Cl)c1` (stereo not shown) [Example 6], the logP is on record as 2.29.

`Cc1ccc(CN(C(=O)c2c(C)nn(C)c2F)C2CC2)cn1` [Example 7] displayed a lipophilicity (logP) of 0.43.

Regarding `Cc1ccc(CN(C(=O)c2cn(C)nc2C(F)F)C2CC2)cn1` [Example 8], the logP turned out to be 0.52.

`Cc1nn(C)c(F)c1C(=O)N(Cc1cnc(Cl)cc1Cl)C1CC1` [Example 9]: the logP stood at 2.28.

Compound `Cn1cc(C(=O)N(Cc2cnc(Cl)cc2Cl)C2CC2)c(C(F)F)n1` [Example 10] came in with a lipophilicity (logP) of 2.46.

With `Cn1cc(C(=O)N(Cc2ccncc2)C2CC2)c(C(F)(F)F)n1` [Example 11], the logP is 0.59.

The compound `Cc1nc(C(F)(F)F)c(C(=O)N(Cc2ccncc2)C2CC2)s1` [Example 13] had a log partition coefficient (logP) of 0.93.

`Cc1nc(C(F)F)c(C(=O)N(Cc2ccncc2)C2CC2)s1` [Example 14]: the logP worked out at 0.58.

In turn, `Cn1nc(C(=O)N(Cc2ccncc2)C2CC2)c(C(F)(F)F)n1` [Example 15] came in with a logP of 1.03.

In turn, `Cn1cc(C(=O)N(Cc2ccncc2)C2CC2)c(C(F)(F)F)c1` [Example 16] yielded a log partition coefficient (logP) of 0.99.

On to `CCC(c1ccncc1)N(C(=O)c1cn(C)nc1C(F)F)C1CC1` (stereo not shown) [Example 18], for which the logP came to 1.79.

`Cc1nc(C(F)F)c(C(=O)N(C2CC2)C(C)c2ncc(Cl)cc2Cl)s1` (stereo not shown) [Example 20] displayed a log partition coefficient (logP) of 3.64.

Regarding `Cn1cc(C(=O)N(Cc2ncc(Cl)cc2Cl)C2CC2)c(C(F)(F)F)n1` [Example 21], the logP is listed as 3.21.

Compound `CCOc1nn(C)cc1C(=O)N(Cc1ncc(Cl)cc1Cl)C1CC1` [Example 22] showed a logP of 2.54.

In turn, `Cc1nc(C(F)(F)F)c(C(=O)N(Cc2ncc(Cl)cc2Cl)C2CC2)s1` [Example 23] had a logP of 3.76.

On to `Cc1nc(C(F)F)c(C(=O)N(Cc2ncc(Cl)cc2Cl)C2CC2)s1` [Example 24], for which the logP was 3.42.

Turning to `O=C(c1sccc1I)N(Cc1ncc(Cl)cc1Cl)C1CC1` [Example 26], the lipophilicity (logP) worked out at 4.16.

In turn, `Cc1nn(C)cc1C(=O)N(C1CC1)C(C)c1ncc(Cl)cc1Cl` (stereo not shown) [Example 27] showed a lipophilicity (logP) of 2.4.

`Cc1nn(C)c(F)c1C(=O)N(C1CC1)C(C)c1ncc(Cl)cc1Cl` (stereo not shown) [Example 28] had a log partition coefficient (logP) of 2.77.

Regarding `Cc1nn(C)c(F)c1C(=O)N(Cc1ncc(Cl)cc1Cl)C1CC1` [Example 29], the logP is listed as 2.56.

On to `Cc1nn(C)c(F)c1C(=S)N(C1CC1)C(C)c1ncc(Cl)cc1Cl` (stereo not shown) [Example 30], for which the logP came to 3.9.

`CC(c1ncc(Cl)cc1Cl)N(C(=O)c1cn(C)nc1C(F)F)C1CC1` (stereo not shown) [Example 31] had a log partition coefficient (logP) of 3.01.

As to `CC(c1ncc(Cl)cc1Cl)N(C(=S)c1cn(C)nc1C(F)F)C1CC1` (stereo not shown) [Example 32], the logP came out at 4.01.

As for `CCc1nn(C)c(F)c1C(=O)N(C1CC1)C(C)c1ncc(Cl)cc1Cl` (stereo not shown) [Example 33], the logP is listed as 3.23.

In turn, `COc1nn(C)cc1C(=O)N(Cc1ncc(Cl)cc1Cl)C1CC1` [Example 34] returned a lipophilicity (logP) of 2.21.

Compound `Cc1nn(C)c(F)c1C(=O)N(Cc1ccc(Oc2ccccc2)nc1)C1CC1` [Example 35] yielded a log partition coefficient (logP) of 2.39.

In the case of `Cn1cc(C(=O)N(Cc2ccc(Oc3ccccc3)nc2)C2CC2)c(C(F)F)n1` [Example 36], the logP turned out to be 2.61.

As to `CC(c1cnccn1)N(C(=O)c1ccsc1I)C1CC1` (stereo not shown) [Example 37], the logP amounted to 2.38.

As for `CC(c1cnccn1)N(C(=O)c1ccco1)C1CC1` (stereo not shown) [Example 38], the log partition coefficient (logP) was 1.62.

In the case of `Cc1nc(C(=O)N(C2CC2)C(C)c2cnccn2)c(C)o1` (stereo not shown) [Example 39], the lipophilicity (logP) turned out to be 1.55.

`Cc1nn(C)cc1C(=O)N(C1CC1)C(C)c1cnccn1` (stereo not shown) [Example 40] registered a logP of 1.25.

As to `Cc1ccoc1C(=O)N(C1CC1)C(C)c1cnccn1` (stereo not shown) [Example 41], the lipophilicity (logP) is recorded as 2.04.

As for `CC(c1cnccn1)N(C(=O)c1cn(C)nc1C(F)F)C1CC1` (stereo not shown) [Example 42], the log partition coefficient (logP) was 1.47.

`CC(c1cnccn1)N(C(=S)c1cn(C)nc1C(F)F)C1CC1` (stereo not shown) [Example 43]: the logP was 2.05.

Compound `Cc1ncoc1C(=O)N(C1CC1)C(C)c1cnccn1` (stereo not shown) [Example 44] yielded a logP of 1.37.

As for `Cc1cc(C(=O)N(C2CC2)C(C)c2cnccn2)no1` (stereo not shown) [Example 45], the logP is listed as 1.65.

Regarding `Cc1cc(C(=O)N(C2CC2)C(C)c2cnccn2)nn1C` (stereo not shown) [Example 46], the logP came out at 1.45.

Compound `Cn1cc(C(=O)N(Cc2ccc(Cl)cn2)C2CC2)c(C(F)(F)F)n1` [Example 48] registered a logP of 2.39.

`CCOc1nn(C)cc1C(=O)N(Cc1ccc(Cl)cn1)C1CC1` [Example 49]: the logP is recorded as 1.98.

`Cc1cc(C(=O)N(Cc2ccc(Cl)cn2)C2CC2)c(C(F)(F)F)o1` [Example 50] gave a logP of 3.36.

In the case of `Cc1nc(C(F)(F)F)c(C(=O)N(Cc2ccc(Cl)cn2)C2CC2)s1` [Example 51], the logP is recorded as 2.93.

For the compound `Cc1nc(C(F)F)c(C(=O)N(Cc2ccc(Cl)cn2)C2CC2)s1` [Example 52], the logP was found to be 2.54.

On to `O=C(c1sccc1I)N(Cc1ccc(Cl)cn1)C1CC1` [Example 53], for which the logP was 3.17.

In turn, `Cn1cc(C(=O)N(Cc2ccc(Cl)cn2)C2CC2)c(C(F)F)n1` [Example 54] gave a log partition coefficient (logP) of 2.08.

As to `COc1ccc(CN(C(=O)c2ccsc2I)C2CC2)cn1` [Example 55], the logP is listed as 2.75.

With `COc1ccc(CN(C(=O)c2ccco2)C2CC2)cn1` [Example 56], the logP amounted to 1.97.

Compound `COc1ccc(CN(C(=O)c2nc(C)oc2C)C2CC2)cn1` [Example 57] displayed a logP of 1.89.

`COc1ccc(CN(C(=O)c2cn(C)nc2C)C2CC2)cn1` [Example 58] displayed a log partition coefficient (logP) of 1.53.

Still in this data set, the particulars now being: reversed-phase HPLC column (C18), C18, 40° C., 0.1% aqueous formic acid and acetonitrile, gradient 10% to 90% acetonitrile.
For `CCC(c1ccncc1)N(C(=O)c1c(C)nn(C)c1F)C1CC1` (stereo not shown) [Example 17, N-cyclopropyl-N-[1-pyridin-4-yl-propyl]-5-fluoro-1,3-dimethyl-1H-pyrazole-4-carboxamide], the chromatographic logP – broadly, a lipophilicity value derived from retention on a column – worked out at 0.92.
